Source: patent US6368788B1 (priority 1987, dated 2002)
Marks after values point to notes of the source that are not given here.

What was measured:
Pseudomonas aeruginosa = assay: Survival after acute peritonitis with LD100 dose of Pseudomonas aeruginosa; type: in vivo, mice
[1] = test system: peripheral blood leukocytes; assay: Peripheral blood leukocytes in cortisone suppressed rats; type: in vivo; details: for Basophils (% of Normal Control Value) / Basophils: % / Basophils: Total Cells / Eosinophils (% of Normal Control Value) / Eosinophils: % / Eosinophils: Total Cells / Leukocytes (% of Normal Control Value) / Leukocytes: Total Cells / Lymphocytes (% of Normal Control Value) / Lymphocytes: % / Lymphocytes: Total Cells / Monocytes (% of Normal Control Value) / Monocytes: % / Monocytes: Total Cells / Segmented Neutrophils (% of Normal Control Value) / Segmented Neutrophils: % / Segmented Neutrophils: Total Cells / Stab Neutrophils (% of Normal Control Value) / Stab Neutrophils: % / Stab Neutrophils: Total Cells: cortisone suppressed rats, 10 μg/kg im
Method: An immunocompromised state was established over a period of 80 days in experimental rats by administration of cortisone acetate at a dosage of 25 mg/kg twice weekly with tetracycline hydrocholoride po in drinking water. In the experimental group, L-Glu-L-Trp was administered in three treatment courses, each course consisting of 10 daily im injections of 10 μg/kg or 100 μg/kg, and each course of treatment separated from the next course by a 1 month interval. In the control group, saline was administered in the same three treatment course schedule. Differential blood counts were conducted on day 0 (Normal Control), day 59, and day 79 of the study. […] Results obtained with the 10 μg/kg treatment dose (presented in TABLE 73) were not markedly different than those obtained with the 100 μg/kg dose.

bone marrow cells = assay: Bone marrow and peripheral blood cells in 5-FU immunosuppressed mice; type: in vivo, CBA mice
Method: The effects of L-Glu-L-Trp on bone marrow hematopoietic activity was investigated in 5-fluorouracil (5-FU) immunosuppressed CBA mice. Mice were treated with a dose schedule of 5-FU determined empirically to be sufficient to decrease the absolute number of bone marrow cells and peripheral blood leukocytes by about 50% on day 10-14. Treatment with L-Glu-L-Trp was initiated on day 10, and 1 μg/kg was administered ip daily on that day and each of the following 4 days. Bone marrow and peripheral blood cell populations were quantified on day 15.

[2] = test system: E-receptors on thymocytes; assay: Expression of E-receptors on trypsin-treated thymocytes (E-RFC); type: cell-based, guinea pigs; details: for E-RFC (%): trypsin-treated thymocytes
Method: Thymus cells were isolated from male guinea pigs (180-200 g) under standard conditions of tissue mincing and differential centrifugation in Medium 199. Isolated thymocytes were treated with trypsin to remove cell surface E-receptors capable of binding rabbit erythrocytes (E). The percentage of cells capable forming E-rosettes (E-RFC) was decreased by about two-fold under these conditions.
L-Glu-L-Trp has been reported to restore T-cell receptors and E-RFC following incubation at 37° C. Studies were conducted in which the activity of L-Glu-L-Trp dipeptide were compared in the latter assay.
Thymocytes were prepared from 48 guinea pigs, treated with trypsin, and tested for E-RFC.

[3] = with antibiotic therapy
[4] = bone marrow, 5-FU + 1 μg/kg ip daily 5 days, day 15
[5] = peripheral blood, 5-FU + 1 μg/kg ip daily 5 days, day 15

L-Glu-L-Trp
Percentage Survivors (Pseudomonas aeruginosa; 24 hours after injection, Glu-Trp dose 10 μg/kg (alone or + Gentamycin 1 MED)): 55.6* %
Percentage Survivors (Pseudomonas aeruginosa; 24 hours after injection, Glu-Trp dose 100 μg/kg (alone or + Gentamycin 1 MED)): 66.7*† %
Percentage Survivors (Pseudomonas aeruginosa; 24 hours after injection, Glu-Trp dose 1000 μg/kg (alone or + Gentamycin 1 MED)): 77.8*† %
Percentage Survivors (Pseudomonas aeruginosa; 48 hours after injection, Glu-Trp dose 10 μg/kg (alone or + Gentamycin 1 MED)): 5.6%
Percentage Survivors (Pseudomonas aeruginosa; 48 hours after injection, Glu-Trp dose 100 μg/kg (alone or + Gentamycin 1 MED)): 38.9* %
Percentage Survivors (Pseudomonas aeruginosa; 48 hours after injection, Glu-Trp dose 1000 μg/kg (alone or + Gentamycin 1 MED)): 44.4* %
Percentage Survivors (Pseudomonas aeruginosa; 96 hours after injection, Glu-Trp dose 10 μg/kg (alone or + Gentamycin 1 MED)): 5.6%
Percentage Survivors (Pseudomonas aeruginosa; 96 hours after injection, Glu-Trp dose 100 μg/kg (alone or + Gentamycin 1 MED)): 38.9%
Percentage Survivors (Pseudomonas aeruginosa; 96 hours after injection, Glu-Trp dose 1000 μg/kg (alone or + Gentamycin 1 MED)): 44.4* %
Survival (Pseudomonas aeruginosa; alone or with Gentamycin): significantly increased the percentage of mice surviving a lethal challenge of Pseudomonas
Peripheral blood cells vs saline treated controls ([1]; 10 μg/kg and 100 μg/kg): increased the number of leukocytes, monocytes, and lymphocytes in the peripheral blood of cortisone-suppressed rats
Basophils (% of Normal Control Value) ([1]; Day 59): (71%)
Basophils: % ([1]; Day 59): 0.4 ± 0.2%
Basophils: Total Cells ([1]; Day 59): 0.05 ± 0.03 × 10^3/mg
Eosinophils (% of Normal Control Value) ([1]; Day 59): (150%)
Eosinophils: % ([1]; Day 59): 4.3 ± 0.4 %
Eosinophils: Total Cells ([1]; Day 59): 0.6 ± 0.1 × 10^9/L
Leukocytes (% of Normal Control Value) ([1]; Day 59): (75%)
Leukocytes: Total Cells ([1]; Day 59): 12.4 ± 1.8 × 10^9/L
Lymphocytes (% of Normal Control Value) ([1]; Day 59): (11%)
Lymphocytes: % ([1]; Day 59): 57 ± 1.5 %
Lymphocytes: Total Cells ([1]; Day 59): 7 ± 1 × 10^9/L
Monocytes (% of Normal Control Value) ([1]; Day 59): (128%)
Monocytes: % ([1]; Day 59): 7 ± 0.9 %
Monocytes: Total Cells ([1]; Day 59): 0.92 ± 0.2 × 10^9/L
Segmented Neutrophils (% of Normal Control Value) ([1]; Day 59): (73%)
Segmented Neutrophils: % ([1]; Day 59): 26.7 ± 1 %
Segmented Neutrophils: Total Cells ([1]; Day 59): 3.3 ± 0.4 × 10^9/L
Stab Neutrophils (% of Normal Control Value) ([1]; Day 59): (100%)
Stab Neutrophils: % ([1]; Day 59): 4.7 ± 0.6%
Stab Neutrophils: Total Cells ([1]; Day 59): 0.6 ± 0.1 × 10^9/L
Basophils (% of Normal Control Value) ([1]; Day 79): (29%)
Basophils: % ([1]; Day 79): 0.3 ± 0.2%
Basophils: Total Cells ([1]; Day 79): 0.02 ± 0.02 × 10^3/mg
Eosinophils (% of Normal Control Value) ([1]; Day 79): (75%)
Eosinophils: % ([1]; Day 79): 4 ± 0.9%
Eosinophils: Total Cells ([1]; Day 79): 0.3 ± 0.1 × 10^9/L
Leukocytes (% of Normal Control Value) ([1]; Day 79): (49%)
Leukocytes: Total Cells ([1]; Day 79): 8.06 ± 0.9 × 10^9/L
Lymphocytes (% of Normal Control Value) ([1]; Day 79): (7.7%)
Lymphocytes: % ([1]; Day 79): 59 ± 2 %
Lymphocytes: Total Cells ([1]; Day 79): 4.7 ± 1 × 10^9/L
Monocytes (% of Normal Control Value) ([1]; Day 79): (100%)
Monocytes: % ([1]; Day 79): 8 ± 0.8 %
Monocytes: Total Cells ([1]; Day 79): 0.7 ± 0.1 × 10^9/L
Segmented Neutrophils (% of Normal Control Value) ([1]; Day 79): (44%)
Segmented Neutrophils: % ([1]; Day 79): 24.6 ± 1.3 %
Segmented Neutrophils: Total Cells ([1]; Day 79): 2 ± 2 × 10^9/L
Stab Neutrophils (% of Normal Control Value) ([1]; Day 79): (58%)
Stab Neutrophils: % ([1]; Day 79): 4.4 ± 0.7 %
Stab Neutrophils: Total Cells ([1]; Day 79): 0.35 ± 0.1 × 10^9/L
Bone marrow cells (bone marrow cells; 1 μg/kg ip, 5 days): an increase in the numbers of myelocytes/neutrophils, stab and segmented neutrophils, and megakaryocytes
Eosinophils (% of Normal Control Value) (bone marrow cells; [4]): (64%)
Eosinophils: % (bone marrow cells; [4]): 1.1%
Eosinophils: Total Cells (bone marrow cells; [4]): 15600 mg⁻¹
Erythroblasts (% of Normal Control Value) (bone marrow cells; [4]): (64%)
Erythroblasts: % (bone marrow cells; [4]): 2.1%
Erythroblasts: Total Cells (bone marrow cells; [4]): 29600 mg⁻¹
Erythroid cells (% of Normal Control Value) (bone marrow cells; [4]): (59%)
Erythroid cells: % (bone marrow cells; [4]): 9.7%
Lymphocytes (% of Normal Control Value) (bone marrow cells; [4]): (88%)
Lymphocytes: % (bone marrow cells; [4]): 43.9%
Lymphocytes: Total Cells (bone marrow cells; [4]): 618900 mg⁻¹
Megakaryocytes (% of Normal Control Value) (bone marrow cells; [4]): (43%)
Megakaryocytes: % (bone marrow cells; [4]): 0.3%
Megakaryocytes: Total Cells (bone marrow cells; [4]): 4200 mg⁻¹
Monocytes (% of Normal Control Value) (bone marrow cells; [4]): (60%)
Monocytes: % (bone marrow cells; [4]): 2.5%
Monocytes: Total Cells (bone marrow cells; [4]): 35300 mg⁻¹
Myeloblasts (% of Normal Control Value) (bone marrow cells; [4]): (74%)
Myeloblasts: % (bone marrow cells; [4]): 5.0%
Myeloblasts: Total Cells (bone marrow cells; [4]): 70600 mg⁻¹
Myelocytes + Neutrophil Metamyelocytes (% of Normal Control Value) (bone marrow cells; [4]): (40%)
Myelocytes + Neutrophil Metamyelocytes: % (bone marrow cells; [4]): 4.0%
Myelocytes + Neutrophil Metamyelocytes: Total Cells (bone marrow cells; [4]): 56400 mg⁻¹
Myelokaryocytes (% of Normal Control Value) (bone marrow cells; [4]): (58%)
Myelokaryocytes: Total Cells (bone marrow cells; [4]): 1.41e+06 mg⁻¹
Non-differentiated blast cells (% of Normal Control Value) (bone marrow cells; [4]): (64%)
Non-differentiated blast cells: % (bone marrow cells; [4]): 2.2%
Non-differentiated blast cells: Total Cells (bone marrow cells; [4]): 31000 mg⁻¹
Promyeloblasts (% of Normal Control Value) (bone marrow cells; [4]): (74%)
Promyeloblasts: % (bone marrow cells; [4]): 3.6%
Promyeloblasts: Total Cells (bone marrow cells; [4]): 50800 mg⁻¹
Reticular cells (% of Normal Control Value) (bone marrow cells; [4]): (50%)
Reticular cells: % (bone marrow cells; [4]): 0.7%
Reticular cells: Total Cells (bone marrow cells; [4]): 9800 mg⁻¹
Stab + Seg. neutrophils (% of Normal Control Value) (bone marrow cells; [4]): (34%)
Stab + Seg. neutrophils: % (bone marrow cells; [4]): 24.9%
Stab + Seg. neutrophils: Total Cells (bone marrow cells; [4]): 351000 mg⁻¹
Blast Cells: % (bone marrow cells; [5]): 0.3%
Blast Cells: Total Cells (bone marrow cells; [5]): 1e+07 L⁻¹
Eosinophils (% of Normal Control Value) (bone marrow cells; [5]): (100%)
Eosinophils: % (bone marrow cells; [5]): 0.3%
Eosinophils: Total Cells (bone marrow cells; [5]): 1e+07 L⁻¹
Lymphocytes (% of Normal Control Value) (bone marrow cells; [5]): (93%)
Lymphocytes: % (bone marrow cells; [5]): 41.9%
Lymphocytes: Total Cells (bone marrow cells; [5]): 2.52e+09 L⁻¹
Monocytes (% of Normal Control Value) (bone marrow cells; [5]): (18%)
Monocytes: % (bone marrow cells; [5]): 2.5%
Monocytes: Total Cells (bone marrow cells; [5]): 2e+07 L⁻¹
Peripheral Blood Leukocytes (% of Normal Control Value) (bone marrow cells; [5]): (52%)
Peripheral Blood Leukocytes: Total Cells (bone marrow cells; [5]): 2.98e+09 L⁻¹
Segmented Neutrophils (% of Normal Control Value) (bone marrow cells; [5]): (22%)
Segmented Neutrophils: % (bone marrow cells; [5]): 14.6%
Segmented Neutrophils: Total Cells (bone marrow cells; [5]): 4.3e+08 L⁻¹
Stab. Neutrophils (% of Normal Control Value) (bone marrow cells; [5]): (26%)
Stab. Neutrophils: % (bone marrow cells; [5]): 7.9%
Stab. Neutrophils: Total Cells (bone marrow cells; [5]): 2.4e+08 L⁻¹
Percentage of E-RFC ([2]; 0.01-1 mg/mL): increased the percentage of E-RFC in trypsin-treated thymocyte cultures
E-RFC (%) ([2]; Conc. 0.0001 mg/ml): 30.3 ± 3.1 %
E-RFC (%) ([2]; Conc. 0.01 mg/ml): 36.8 ± 2.4 %
E-RFC (%) ([2]; Conc. 1 mg/ml): 42.8 ± 3.5 %
Clinical outcome [3]: accelerated healing of chronic and acute ear infections
